ChEMBL document CHEMBL1201862, “PubChem BioAssay data set” (2004)
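Dose response: 5 concentrations. Exposure: 48 h. Format: 96-well plates. Endpoint: linear interpolation; highest concentration if not reached. Abbreviation: GI50, concentration required for 50% inhibition of growth.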 Activity calls are given as the source filed them. Cut-off read from the data, not from the text of the source: active = GI50 up to about 1.1 µM and inactive = higher.

Legend:
Experiment in all cases: DTP human tumour cell line panel, 48 h
[1] = tested on: 786-0
[2] = tested on: UO-31
[3] = tested on: SW-620
[4] = tested on: CAKI-1
[5] = tested on: SF-268
[6] = tested on: SK-MEL-28
[7] = tested on: RPMI-8226
[8] = tested on: HCC 2998
[9] = tested on: Hs-578T
[10] = tested on: CCRF-CEM
[11] = tested on: OVCAR-4
[12] = tested on: SK-MEL-2
[13] = tested on: COLO 205
[14] = tested on: A549
[15] = tested on: HCT-116
[16] = tested on: HOP-92
[17] = tested on: SK-MEL-5
[18] = tested on: ACHN
[19] = tested on: SF-539
[20] = tested on: SK-OV-3

Row | SMILES | GI50 [1] | GI50 [2] | GI50 [3] | GI50 [4] | GI50 [5] | GI50 [6] | GI50 [7] | GI50 [8] | GI50 [9] | GI50 [10] | GI50 [11] | GI50 [12] | GI50 [13] | GI50 [14] | GI50 [15] | GI50 [16] | GI50 [17] | GI50 [18] | GI50 [19] | GI50 [20]
1 | S=C(NCCc1ccccn1)N/N=C(\c1ccccc1)c1ccccn1 | 1.47 µM (inactive) | 1.23 µM (inactive) | 0.0331 µM (active) | < 0.01 µM (active) | 0.222 µM (active) | 14.7 µM (inactive) | 0.0634 µM (active) | 12.1 µM (inactive) | 20.5 µM (inactive) | < 0.01 µM (active) | 3.01 µM (inactive) | 21.5 µM (inactive) | < 0.01 µM (active) | 3.4 µM (inactive) | < 0.01 µM (active) | 1.63 µM (inactive) | 1.45 µM (inactive) | < 0.0344 µM (active) | 0.63 µM (active) | 0.815 µM (active)
2 | CCOC(=O)c1ncn(CCc2ccc(Cl)cc2)c1C | > 100 µM (inactive) | 34.5 µM (inactive) | > 100 µM (inactive) | 80.2 µM (inactive) | 92.9 µM (inactive) | > 100 µM (inactive) | 62.7 µM (inactive) | > 100 µM (inactive) | > 100 µM (inactive) | > 100 µM (inactive) | 56.6 µM (inactive) | > 100 µM (inactive) | > 100 µM (inactive) | > 100 µM (inactive) | > 100 µM (inactive) | > 100 µM (inactive) | 85.9 µM (inactive) | > 100 µM (inactive) | > 100 µM (inactive) | 
3 | C=C1C(C(=O)OC)[C@H]1C(=O)OC (some centres undefined) | > 100 µM (inactive) | > 100 µM (inactive) | > 100 µM (inactive) | > 100 µM (inactive) | > 100 µM (inactive) | > 100 µM (inactive) | > 100 µM (inactive) | > 100 µM (inactive) | > 100 µM (inactive) |  | > 100 µM (inactive) | > 100 µM (inactive) | > 100 µM (inactive) | > 100 µM (inactive) | > 100 µM (inactive) | > 100 µM (inactive) | > 100 µM (inactive) | > 100 µM (inactive) | > 100 µM (inactive) | > 100 µM (inactive)
4 | COc1ccc(OCc2ccc3nc(-c4ccccc4)c(Cl)nc3c2)cc1 | 10.6 µM (inactive) | 62.8 µM (inactive) | 43.2 µM (inactive) | 22.3 µM (inactive) | 25.2 µM (inactive) | 47.3 µM (inactive) | 9.93 µM (inactive) | 27.7 µM (inactive) | 23.4 µM (inactive) | 15.8 µM (inactive) | 19.4 µM (inactive) | 26.9 µM (inactive) | 16.6 µM (inactive) | 40 µM (inactive) | 19.2 µM (inactive) | 14.5 µM (inactive) | 6.89 µM (inactive) | 27.9 µM (inactive) | 12.9 µM (inactive) | 
5 | CCCC1=NC(C(F)(F)F)(C(F)(F)F)N=C(N2CCOCC2)O1 | > 100 µM (inactive) | > 100 µM (inactive) | > 100 µM (inactive) | 63.4 µM (inactive) | > 100 µM (inactive) | > 100 µM (inactive) | > 100 µM (inactive) | > 100 µM (inactive) | > 100 µM (inactive) | > 100 µM (inactive) | 80.2 µM (inactive) | > 100 µM (inactive) | > 100 µM (inactive) | > 100 µM (inactive) | > 100 µM (inactive) | 25.3 µM (inactive) | > 100 µM (inactive) |  | > 100 µM (inactive) | > 100 µM (inactive)
6 | O=c1cc(N2CCOCC2)n2c(ccc3ccccc32)n1 | > 100 µM (inactive) | > 100 µM (inactive) | > 100 µM (inactive) | > 100 µM (inactive) | > 100 µM (inactive) |  | > 100 µM (inactive) | > 100 µM (inactive) | > 100 µM (inactive) | > 100 µM (inactive) |  | > 100 µM (inactive) | > 100 µM (inactive) | > 100 µM (inactive) | > 100 µM (inactive) | > 100 µM (inactive) | > 100 µM (inactive) | > 100 µM (inactive) | > 100 µM (inactive) | > 100 µM (inactive)
7 | O=C(/C=c1\oc(=O)/c(=C/C(=O)c2ccc(Cl)cc2)oc1=O)c1ccc(Cl)cc1 | > 100 µM (inactive) | > 100 µM (inactive) |  | > 100 µM (inactive) | 97.3 µM (inactive) | > 100 µM (inactive) | > 100 µM (inactive) | > 100 µM (inactive) | 34.2 µM (inactive) | 39.4 µM (inactive) | 39.6 µM (inactive) | > 100 µM (inactive) | > 100 µM (inactive) | > 100 µM (inactive) | > 100 µM (inactive) | 43.1 µM (inactive) | > 100 µM (inactive) | > 100 µM (inactive) | > 100 µM (inactive) | > 100 µM (inactive)
8 | CCN(CC)CCc1c2c(nc3ccccc13)C(=O)c1cccnc1C2=O | 2.07 µM (inactive) | 1.57 µM (inactive) | 0.424 µM (active) | 2.03 µM (inactive) | 2.44 µM (inactive) | 1.8 µM (inactive) | 1.88 µM (inactive) | 2.54 µM (inactive) | 4.99 µM (inactive) | 1.97 µM (inactive) | 0.726 µM (active) | 2.94 µM (inactive) | 1.58 µM (inactive) | 2.88 µM (inactive) | 0.325 µM (active) | 3.13 µM (inactive) | 0.209 µM (active) | 0.719 µM (active) |  | 1.09 µM (active)
9 | c1ccc2c3c(ccc2c1)CSCc1ccc2ccccc2c1-3 | > 100 µM (inactive) | > 100 µM (inactive) |  | > 100 µM (inactive) | > 100 µM (inactive) | > 100 µM (inactive) | > 100 µM (inactive) | > 100 µM (inactive) | > 100 µM (inactive) | > 100 µM (inactive) | 26.8 µM (inactive) | > 100 µM (inactive) | > 100 µM (inactive) | > 100 µM (inactive) | > 100 µM (inactive) | 22.2 µM (inactive) | > 100 µM (inactive) | > 100 µM (inactive) | 54.1 µM (inactive) | 
10 | CC1=NN(c2cccc(S(=O)(=O)O)c2)C2(C1)C(Cl)C(=O)N2c1nc2ccccc2s1 (centres undefined) | 5.56 µM (inactive) | 3.55 µM (inactive) | 4.54 µM (inactive) | 2.9 µM (inactive) | 7.87 µM (inactive) | 15.7 µM (inactive) | 1.83 µM (inactive) | 15.1 µM (inactive) | 11.7 µM (inactive) | 1.26 µM (inactive) | 4.74 µM (inactive) | 4 µM (inactive) | 8.3 µM (inactive) | 8.61 µM (inactive) | 6.47 µM (inactive) | 2.57 µM (inactive) | 6.17 µM (inactive) | 6.81 µM (inactive) |  | 11.2 µM (inactive)
11 | O=C(C#Cc1cn(C2CC(O)C(CO)O2)c(=O)[nH]c1=O)c1ccccc1 (centres undefined) | 62.2 µM (inactive) | > 100 µM (inactive) | 25.2 µM (inactive) | > 100 µM (inactive) | > 100 µM (inactive) | 39.5 µM (inactive) | 44 µM (inactive) | > 100 µM (inactive) | 79.3 µM (inactive) |  | 51.4 µM (inactive) | > 100 µM (inactive) | 28.6 µM (inactive) | > 100 µM (inactive) | 42.5 µM (inactive) | 29.5 µM (inactive) | 88.7 µM (inactive) | 83.4 µM (inactive) | 23.2 µM (inactive) | > 100 µM (inactive)
12 | O=C1C(=CNc2ccc([N+](=O)[O-])cc2)C(=O)N(c2ccccc2)C(=O)N1c1ccccc1 | > 100 µM (inactive) | > 100 µM (inactive) | > 100 µM (inactive) | > 100 µM (inactive) | > 100 µM (inactive) |  | 71.6 µM (inactive) | > 100 µM (inactive) | > 100 µM (inactive) | > 100 µM (inactive) | > 100 µM (inactive) | 85.7 µM (inactive) | > 100 µM (inactive) | > 100 µM (inactive) | > 100 µM (inactive) | > 100 µM (inactive) | > 100 µM (inactive) | 64.7 µM (inactive) |  | > 100 µM (inactive)
13 | CN(C(=O)c1ccccc1)C1CCCC(=O)CC1 (centres undefined) | > 100 µM (inactive) | > 100 µM (inactive) | > 100 µM (inactive) | > 100 µM (inactive) | > 100 µM (inactive) | > 100 µM (inactive) | > 100 µM (inactive) | > 100 µM (inactive) | > 100 µM (inactive) | > 100 µM (inactive) | > 100 µM (inactive) | > 100 µM (inactive) | > 100 µM (inactive) | > 100 µM (inactive) | > 100 µM (inactive) | > 100 µM (inactive) |  | > 100 µM (inactive) | > 100 µM (inactive) | > 100 µM (inactive)
14 | CC(C)(C)C1=CC(C)(n2[nH]c(=O)n(-c3ccccc3)c2=O)C=C(C(C)(C)C)C1=O | > 100 µM (inactive) | 44.9 µM (inactive) | > 100 µM (inactive) | > 100 µM (inactive) | > 100 µM (inactive) | > 100 µM (inactive) | 25.2 µM (inactive) | > 100 µM (inactive) | > 100 µM (inactive) |  | > 100 µM (inactive) | > 100 µM (inactive) | > 100 µM (inactive) | > 100 µM (inactive) | > 100 µM (inactive) | > 100 µM (inactive) | > 100 µM (inactive) | > 100 µM (inactive) | > 100 µM (inactive) | > 100 µM (inactive)
